Measured values as given in PubChem BioAssay (NCI).
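Values below derive from 48-hour exposures of cells grown in 96-well plates, with endpoints linearly interpolated between the two concentrations bracketing the appropriate inhibition level. Definition used: TGI = concentration required for complete inhibition of growth.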

What was measured:
Experiment in all cases: NCI anticancer screen, dose series, 48 h
RPMI-8226 leukemia = tested on: RPMI-8226 leukemia
UO-31 renal = tested on: UO-31 renal
A498 renal = tested on: A498 renal
HT29 colon = tested on: HT29 colon
HCT-116 colon = tested on: HCT-116 colon
MOLT-4 leukemia = tested on: MOLT-4 leukemia
CAKI-1 renal = tested on: CAKI-1 renal
MDA-MB-231 breast = tested on: MDA-MB-231 breast
OVCAR-3 ovarian = tested on: OVCAR-3 ovarian
EKVX NSCLC = tested on: EKVX NSCLC
NCI-H226 lung = tested on: NCI-H226 lung
SF-295 CNS = tested on: SF-295 CNS
UACC-257 melanoma = tested on: UACC-257 melanoma
T-47D breast = tested on: T-47D breast
SK-OV-3 ovarian = tested on: SK-OV-3 ovarian
SNB-19 CNS = tested on: SNB-19 CNS
ACHN renal = tested on: ACHN renal

Structure (SMILES)	TGI (RPMI-8226 leukemia) [µM]	TGI (UO-31 renal) [µM]	TGI (A498 renal) [µM]	TGI (HT29 colon) [µM]	TGI (HCT-116 colon) [µM]	TGI (MOLT-4 leukemia) [µM]	TGI (CAKI-1 renal) [µM]	TGI (MDA-MB-231 breast) [µM]	TGI (OVCAR-3 ovarian) [µM]	TGI (EKVX NSCLC) [µM]	TGI (NCI-H226 lung) [µM]	TGI (SF-295 CNS) [µM]	TGI (UACC-257 melanoma) [µM]	TGI (T-47D breast) [µM]	TGI (SK-OV-3 ovarian) [µM]	TGI (SNB-19 CNS) [µM]	TGI (ACHN renal) [µM]
Clc1ccccc1/C=c1\nc(-c2ccccc2)n2c1nc1ccccc12	> 100	> 100	> 100	> 100	> 100	> 100	> 100	73.1	> 100	62.9	> 100	31.2	> 100	> 100	71.7	> 100	> 100
N#CC(C(=O)c1cccnc1Cl)c1nc2cc(C(F)(F)F)ccc2s1 (stereo not given)	> 100	> 100	87	> 100	90.3	> 100	> 100	> 100	> 100	> 100	> 100	> 100	> 100	> 100	> 100	> 100	> 100
COc1ccccc1NC(=S)NN=C(C)c1cccc(C(C)=NNC(=S)Nc2ccccc2OC)n1	> 100	> 100	93	> 100	11.1	74.5	> 100	68.9	> 100	> 100	> 100	> 100	93.9	> 100	> 100	> 100	64.3
O=c1oc2ccccc2nc1/C=C(\O)c1ccc(Cl)cc1		> 100	> 100	> 100	> 100	> 100	> 100	> 100	> 100	> 100	> 100	> 100	> 100	> 100	> 100	> 100	> 100
COc1ccccc1NC(=S)N/N=C/c1c(C)n(C)n(-c2ccccc2)c1=O	> 100	> 100	> 100	> 100	> 100	> 100	> 100	> 100		> 100	> 100	> 100	> 100	> 100	> 100	> 100	> 100
CC(=O)C(=[N+]=[N-])C(=O)N1CCOC1=O	> 10	> 10	> 10	> 10	> 10	> 10	> 10	> 10	> 10	> 10	> 10	> 10	> 10	> 10	> 10	> 10	> 10
COC(=O)/C(C#N)=C(\Nc1ccccc1)N1CCOCC1	> 100	> 100	> 100	> 100	> 100	> 100	> 100	> 100	> 100	> 100	> 100	> 100	> 100	> 100	> 100	> 100	> 100
O=C(O)CCCC(=O)Nn1c(Cc2ccc(Cl)cc2)n[nH]c1=O	> 100	> 100	> 100	> 100	> 100	> 100	> 100	> 100	> 100	> 100	> 100	> 100	> 100	> 100	> 100		> 100
COc1ccc(N=N/C(=N/NC(=O)c2ccc(C)cc2)c2ccc(N(CCC#N)CCC#N)cc2OC)cc1		> 100	> 100	> 100	> 100	> 100	> 100	> 100	> 100	> 100	> 100	> 100	> 100	> 100	> 100	> 100	> 100
CCOC(=O)c1c[nH]c2c(Sc3ccccc3)nccc2c1=O		> 100	> 100	> 100	> 100	> 100	> 100	> 100	> 100	> 100	> 100	> 100	> 100	> 100	> 100	> 100	> 100
O=c1[nH]c(Nc2ccc(Cl)c(C(F)(F)F)c2)nc2nc[nH]c12	> 100	> 100	60.9	> 100	> 100	62.4	> 100	> 100	> 100	> 100	> 100	> 100	> 100	> 100	> 100	> 100	> 100
N=C1OC(CN2CCN(c3ccccc3)CC2)CN1C(=S)Nc1ccccc1 (stereo not given)	> 100	> 100	> 100	> 100	> 100	> 100	> 100	> 100	> 100	> 100	> 100	> 100	> 100	> 100	> 100	> 100	> 100
O=C1CSC(/C=C/c2ccccc2)N1c1nc2cc3sc(N4C(=O)CSC4/C=C/c4ccccc4)nc3cc2s1 (stereo not given)	> 100	> 100	> 100	> 67	> 100	> 100	> 100	> 100	> 100	> 80.9	> 95.5	> 100	> 100	> 100	> 100	> 100	> 100
COc1ccc(C2NC(=S)Nc3c2c(=O)oc2c3ccc3ccccc32)cc1 (stereo not given)	> 100	> 100	> 100	> 100	> 100	> 100	> 100	> 100	> 100	> 100	> 100	> 100	> 100	> 100	> 100	> 100	> 100
Cc1cc2c(c(C=Nc3ccccc3O)c1)OC1(C=C2)Oc2ccccc2C(=O)N1C (stereo not given)	84.3	31.4	56.1	30.2	27.5	51	42.2	37.5	29.4	40.5	36.4	68.2	30.8	8.45	58.4	> 100	40.3
CC(C)C1C(=O)N(c2c(F)c(F)c(F)c(F)c2F)C(=S)N1CCS(=O)c1ccccc1 (stereo not given)	53.8	28.6	30.6	27.8	34.7	49.7	9.86	32	30.5	31.3	38.5	33.1	35.5	32.5	34.9	34.6	37.1
OC(c1ccc(F)cc1)C(F)(F)c1nc2ccccc2o1 (stereo not given)	> 100	> 100	> 100	> 100	> 100	> 100	> 100	> 100		> 100	> 100	> 100	> 100	> 100	> 100	> 100	> 100
C#C[C@]1(O)CC[C@H]2[C@@H]3CCC4=C/C(=N/OCCN(C)C)CC[C@]4(C)[C@H]3CC[C@@]21C	> 100	> 100	> 100	> 100	> 100	> 100	> 100	> 100	65.2	> 100	85.8	32.4	> 100	> 100	> 100	> 100	> 100
CCCCCCCCCCCCCCCCCc1cccc(OCOCCOC)c1C(=O)O	> 72.7	31.7	32.2	35.7	39.1	44.1	35.1	37.4	36.9	38.7	32.3	35.5	36.6	35.2	28	40.6	35.2
O=C1NC(=O)C(F)(n2cc(F)c(=O)[nH]c2=O)C(O)N1 (stereo not given)	> 10	> 10	> 10	> 10	> 10	> 10	> 10	> 10	> 10	> 10	> 10	> 10	> 10	> 10	> 10	> 10	> 10
O=P12N(CCN1c1ccccc1)CCN2c1ccccc1	> 100	> 100	> 100	> 100	> 100	> 100	> 100	> 100	> 100	> 100	> 100	> 100	> 100	> 100	> 100	> 100	> 100
NC1=CN(CCCO)C2=N/C(=C\c3ccccc3)C(=O)N12	> 100	> 100	> 100	> 100	> 100	> 100	> 100	> 100	> 100	> 100	> 100	> 100	> 100	> 100	> 100	> 100	> 100
Cc1ccccc1N=Nc1c(O)c(S(=O)(=O)O)cc2cc(S(=O)(=O)O)ccc12		> 100	> 100	> 100	> 100	> 100	> 100	> 100	> 100	> 100	> 100	> 100	> 100	> 100	> 100	> 100	> 100
COC(=O)/C=C1\C(=O)N(C(C)=O)c2ccc(Br)cc21	6.95	3.91	51.6	25	19.8	10	> 47	28.2	15.7	32.1	29.4	31.6	22.8	15.1	29.1	27.9	23.9
Cc1ccc(NC(Nc2ccc(C)cc2C)=C(C(Cl)=C(Cl)Cl)[N+](=O)[O-])c(C)c1	52.8	26.6	36.3	33.3	26.7	31.2	37.4	33	29.7	29.8	32.3		35.7	32.1	39.8	30	28.5
Oc1ccc(O)c(CNc2ccc(C(O)C(F)(F)F)cc2)c1 (stereo not given)		21.9	> 100	> 100	32.2	29.7	29.7	33.7	15.4	27.8	84.1	32.5	34.6	61.5	> 100	> 100	26.6
CC1=CC(=O)CC(C)(C)C1/C=C/C(C)=C/C=C/C(C)=C/C=C/C=C(C)/C=C/C=C(C)/C=C/C1C(C)=CC(=O)CC1(C)C (stereo not given)	> 100	> 100	> 100	> 100	55.1	> 100	> 100	> 100	> 100	> 100	> 100	> 100	> 100	> 100	> 100		> 100
O=c1ccn(CC2(CO)CCC2)c(=O)[nH]1	> 100	> 100	> 100	> 100	> 100	> 100	> 100	> 100	> 100	> 100	> 100	> 100	> 100	> 100	> 100		> 100
